Reference: patent US20140329868A1, “METHODS FOR TREATING HYPERTENSION” (TAKEDA PHARMACEUTICALS U.S.A., INC., priority 2005, published 2014)

Key:
[1] = test system: subjects having a systolic BP≧160 mmHg or diastolic BP≧95 mmHg (elevated blood pressure); assay: Example 1: blood pressure change in subjects with elevated blood pressure, none taking antihypertensive agents at baseline (two double-blind studies); assay type: in vivo, human; conditions: 300/100 mg QD
Experimental: A total of 103 subjects (9 in the placebo group, 26 in each the 2-[3-cyano-4-(2-methylpropoxy)phenyl]-4-methylthiazole-5-carboxylic acid (hereinafter referred to as “febuxostat”) 80 mg and 120 mg once daily (hereinafter referred to as “QD”) groups, 10 in the febuxostat 240 mg QD group and 32 in the 4-hydroxy-3,4-pyrazolopyrimidine (hereinafter referred to as “allopurinol”) 300/100 mg QD group), having a systolic BP≧160 mmHg or diastolic BP≧95 mmHg, and thus considered to have “elevated blood pressure”, were examined. Allopurinol […] xanthine oxidoreductase inhibitor.
None of the above subjects were taking any antihypertensive agents at the baseline (start) of the study. These […] subjects were part of two (2) double-blind (hereinafter referred to as “DB”) studies. One study was of 28 weeks in duration. During this time, the subjects received 80 mg, 120 mg or 240 mg QD of febuxostat, placebo or allopurinol 300 or 100 mg QD, depending on the subject's renal function. The second study was 52 weeks in duration. During this time, the subjects received 80 mg or 120 mg QD of febuxostat or allopurinol 300 mg QD.

[2] = test system: subjects having a systolic BP≧160 mmHg or diastolic BP≧95 mmHg (elevated blood pressure); assay: Example 2: blood pressure change in subjects with elevated blood pressure, none taking angiotensin-converting enzyme inhibitors (two double-blind studies); assay type: in vivo, human; conditions: 300/100 mg QD
Experimental: None of these subjects were taking any angiotensin-coverting enzyme inhibitors, but might have been taking some other type of antihypertensive drug at the baseline (start) of the study. These 158 subjects were part of two (2) DB studies. One study was of 28 weeks in duration during which subjects received 80 mg, 120 mg or 240 mg QD of febuxostat or placebo or allopurinol 300 or 100 mg QD, depending on the subject's renal function. The second study was 52 weeks in duration during which subjects received 80 mg or 120 mg QD of febuxostat or allopurinol 300 mg QD. […] A total of 52 weeks of treatment was completed by 15 subjects in the febuxostat 80 mg QD group, 9 in the febuxostat 120 mg QD group and 17 in the allopurinol 300/100 mg QD group. Because of the shorter duration of one of the two DB studies, no subject in the placebo and febuxostat 240 mg QD groups was treated for 52 weeks.

[3] = test system: subjects having a systolic BP≧160 mmHg or diastolic BP≧95 mmHg (elevated blood pressure); assay: Example 3: blood pressure change in subjects with elevated blood pressure, none taking angiotensin antagonists (two double-blind studies); assay type: in vivo, human; conditions: 300/100 mg QD
Experimental: None of these subjects were taking any angiotensin antagonists, but might have been taking some other type of antihypertensive drug at the baseline (start) of the study. These 187 subjects were part of two (2) DB studies. One study was of 28 weeks in duration during which subjects received 80 mg, 120 mg or 240 mg QD of febuxostat or placebo or allopurinol 300 or 100 mg QD, depending on the subject's renal function. The second study was of 52 weeks in duration during which subjects received 80 mg or 120 mg QD of febuxostat or allopurinol 300 mg QD. Of these 187 subjects, all completed 4 weeks of treatment and 132 completed 28 weeks of treatment. A total of 52 weeks of treatment was completed by 15 subjects in the febuxostat 80 mg QD group, 11 in the febuxostat 120 mg QD group and 22 in the allopurinol 300/100 mg QD group. Because of the shorter duration of one of the 2 DB studies, no subject in the placebo and febuxostat 240 mg QD groups were treated for 52 weeks.

[4] = biological target: T1, purine nucleotide phosphorylase (Homo sapiens, UniProt P00491); conditions: at a therapeutically effective amount in a subject; stated as known; cited from earlier work
T1 sequence (P00491 1-289): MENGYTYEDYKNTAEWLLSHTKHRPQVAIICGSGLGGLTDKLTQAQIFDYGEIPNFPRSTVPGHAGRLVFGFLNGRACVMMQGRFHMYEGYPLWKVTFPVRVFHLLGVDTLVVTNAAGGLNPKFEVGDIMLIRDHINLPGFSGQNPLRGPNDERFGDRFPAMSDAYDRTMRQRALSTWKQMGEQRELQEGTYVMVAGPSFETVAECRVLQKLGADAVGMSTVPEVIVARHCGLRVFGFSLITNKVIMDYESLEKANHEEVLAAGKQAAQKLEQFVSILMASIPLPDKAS

[5] = biological target: orotidine-5-monophosphate decarboxylase (Homo sapiens, UniProt P11172); conditions: at a therapeutically effective amount in a subject; stated as known; cited from earlier work
Sequence of orotidine-5-monophosphate decarboxylase (P11172 whole entry): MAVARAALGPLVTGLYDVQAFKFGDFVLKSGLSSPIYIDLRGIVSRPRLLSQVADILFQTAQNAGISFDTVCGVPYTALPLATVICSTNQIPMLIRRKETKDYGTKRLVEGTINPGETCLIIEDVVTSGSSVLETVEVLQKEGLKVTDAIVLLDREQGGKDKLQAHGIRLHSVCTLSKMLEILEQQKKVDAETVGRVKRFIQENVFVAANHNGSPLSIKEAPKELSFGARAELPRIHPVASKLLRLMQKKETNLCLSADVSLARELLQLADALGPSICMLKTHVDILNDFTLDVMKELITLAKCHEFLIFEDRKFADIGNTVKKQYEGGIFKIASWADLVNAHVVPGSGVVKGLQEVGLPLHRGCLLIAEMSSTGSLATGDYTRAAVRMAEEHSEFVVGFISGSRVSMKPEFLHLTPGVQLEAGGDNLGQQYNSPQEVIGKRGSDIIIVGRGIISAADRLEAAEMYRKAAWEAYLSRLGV

Oc1ncnc2[nH]ncc12 [allopurinol, 4-hydroxy-3,4-pyrazolopyrimidine]
mean change from baseline for diastolic BP ([1]; after 4 weeks of treatment): −6.3 mmHg
mean change from baseline for mean arterial BP ([1]; after 4 weeks of treatment): −6.8 mmHg
mean change from baseline for systolic BP ([1]; after 4 weeks of treatment): −7.7 mmHg
mean change from baseline for diastolic BP ([1]; after 28 weeks of treatment): −8.2 mmHg
mean change from baseline for mean arterial BP ([1]; after 28 weeks of treatment): −7.8 mmHg
mean change from baseline for systolic BP ([1]; after 28 weeks of treatment): −7.0 mmHg
mean change from baseline for diastolic BP ([1]; after 52 weeks of treatment): −10.9 mmHg
mean change from baseline for mean arterial BP ([1]; after 52 weeks of treatment): −10.4 mmHg
mean change from baseline for systolic BP ([1]; after 52 weeks of treatment): −9.4 mmHg
mean change from baseline for diastolic BP ([2]; after 4 weeks of treatment): −6.7 mmHg
mean change from baseline for mean arterial BP ([2]; after 4 weeks of treatment): −6.7 mmHg
mean change from baseline for systolic BP ([2]; after 4 weeks of treatment): −6.6 mmHg
mean change from baseline for diastolic BP ([2]; after 28 weeks of treatment): −10.1 mmHg
mean change from baseline for mean arterial BP ([2]; after 28 weeks of treatment): −9.8 mmHg
mean change from baseline for systolic BP ([2]; after 28 weeks of treatment): −9.1 mmHg
mean change from baseline for diastolic BP ([2]; after 52 weeks of treatment): −11.4 mmHg
mean change from baseline for mean arterial BP ([2]; after 52 weeks of treatment): −10.8 mmHg
mean change from baseline for systolic BP ([2]; after 52 weeks of treatment): −9.5 mmHg
mean change from baseline for diastolic BP ([3]; after 4 weeks of treatment): −5.7 mmHg
mean change from baseline for mean arterial BP ([3]; after 4 weeks of treatment): −6.1 mmHg
mean change from baseline for systolic BP ([3]; after 4 weeks of treatment): −7.0 mmHg
mean change from baseline for diastolic BP ([3]; after 28 weeks of treatment): −8.7 mmHg
mean change from baseline for mean arterial BP ([3]; after 28 weeks of treatment): −8.8 mmHg
mean change from baseline for systolic BP ([3]; after 28 weeks of treatment): −9.0 mmHg
mean change from baseline for diastolic BP ([3]; after 52 weeks of treatment): −11.6 mmHg
mean change from baseline for mean arterial BP ([3]; after 52 weeks of treatment): −11.1 mmHg
mean change from baseline for systolic BP ([3]; after 52 weeks of treatment): −10.0 mmHg
effect on the activity of purine nucleotide phosphorylase [4]: has an effect
effect on the activity of orotidine-5-monophosphate decarboxylase [5]: has an effect
